Reference: EP4782453A1 (Beyang Therapeutics Co., Ltd., priority 2023, dated 2025)
Read-outs that look alike come from different tables or passages of the source.

Tests used:
[1] = biological target: T1, Menin-MLL (Homo sapiens, UniProt O00255); experiment: Inhibitory activity against Menin-MLL binding (fluorescence polarization); conditions: 150 nM His-Menin, 15 nM FITC-MLL, 25°C for 60 min
T1 construct: His-Menin (M1-L615 end); purchased BIORTUS BP9210
T1 sequence (O00255 1-615 isoform O00255-1): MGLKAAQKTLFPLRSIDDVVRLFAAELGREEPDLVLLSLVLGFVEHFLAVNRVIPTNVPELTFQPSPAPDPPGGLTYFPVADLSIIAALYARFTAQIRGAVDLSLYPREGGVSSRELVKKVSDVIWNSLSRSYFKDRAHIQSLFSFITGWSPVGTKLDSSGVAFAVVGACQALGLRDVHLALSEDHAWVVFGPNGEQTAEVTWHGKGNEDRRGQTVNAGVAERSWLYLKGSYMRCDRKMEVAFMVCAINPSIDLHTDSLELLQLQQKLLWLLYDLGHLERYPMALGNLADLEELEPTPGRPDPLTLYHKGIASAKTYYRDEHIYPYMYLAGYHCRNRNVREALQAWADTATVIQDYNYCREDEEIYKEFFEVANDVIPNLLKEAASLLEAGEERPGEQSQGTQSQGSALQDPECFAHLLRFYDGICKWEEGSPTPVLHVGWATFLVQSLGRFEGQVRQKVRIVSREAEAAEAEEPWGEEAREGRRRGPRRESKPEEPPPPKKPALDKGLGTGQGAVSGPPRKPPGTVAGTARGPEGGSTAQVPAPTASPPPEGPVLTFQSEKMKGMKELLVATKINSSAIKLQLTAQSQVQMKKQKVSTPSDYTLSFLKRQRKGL
In short: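 Fluorescence polarization competition: compound and 150 nM His-tagged menin (residues M1-L615) sit 15 min at 25 °C in pH 7.5 HEPES buffer with NaCl, DTT and BSA; 15 nM FITC-labelled MLL peptide then binds for 60 min. IC50 fitted sigmoidally from mP values, duplicate wells.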

[2] = test system: MV-4-11 (carrying MLL-AF4); experiment: Inhibition of proliferation of human tumor cells (Alamar Blue, 7 days), MV-4-11; format: cell-based; conditions: Homo sapiens, MV4-11, 168 h, MV-4-11 cells (carrying MLL-AF4), method calls the value GI50
In short: (§1)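 Suspension cells were plated, dosed the same day with a graded compound series, and incubated seven days at 37°C under 5% CO2. Growth was then measured by Alamar Blue fluorescence, and the concentration halving proliferation (GI50) was calculated relative to Day 0 and Day 7 vehicle controls.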

[3] = test system: MOLM-13 (carrying MLL-AF9); experiment: Inhibition of proliferation of human tumor cells (Alamar Blue, 7 days), MOLM-13; format: cell-based; conditions: Homo sapiens, MOLM-13 cells (carrying MLL-AF9), method calls the value GI50
In short: as §1

[4] = test system: KG-1a (wild-type MLL); experiment: Inhibition of proliferation of human tumor cells (Alamar Blue, 7 days), KG-1a control cell line; format: cell-based; conditions: 168 h, KG-1a cells (wild-type MLL, control cell line), method calls the value GI50
Description: Experimental Example 2: Evaluation of Inhibitory Activity of Compounds Against Proliferation of Human Tumor Cells
• Human acute lymphoblastic leukemia cells MV-4-11, purchased from American Type Culture Collection, Catalog Number: CRL-9591; • Human acute myeloid leukemia cells MOLM-13, purchased from COBIOER BIOSCIENCES CO., LTD, Catalog Number: CBP60678; • Human acute myeloid leukemia cells KG-1a, purchased from American Type Culture Collection, Catalog Number: CCL-246.1; • Inverted Microscope, purchased from Olympus Tokyo; • Countess™ Automated Cell Counter, purchased from Invitrogen, Model: C10281; and • Multilabel Reader, purchased from Bio-Tek, Model: Synergy HT.
MV-4-11 cells were cultured in an IMDM medium containing 10% fetal bovine serum, KG-a cells were cultured in an IMDM medium containing 20% fetal bovine serum, or MOLM-13 cells were cultured in an RPMI-1640 medium containing 20% fetal bovine serum, each supplemented with 100 U·mL^-1 penicillin and 100 µg·mL^-1 streptomycin. These cells were cultured at 37°C with 5% CO2. The suspensions of individual cell lines were prepared in their respective media and seeded into 96-well plates at a density of 4,000 cells/well for MV-4-11 and MOLM-13 cells, or 3,000 cells/well for KG-1a cells. On the day of the experiment, a compound stock solution was diluted in a 3-fold or 4-fold gradient using DMSO. Each gradient-diluted stock solution was then further diluted 250-fold with a complete medium to prepare a series of working solutions at different concentrations. Subsequently, 100 µL of working solution (containing a 2-fold concentration series of the test compound) was added to each well, with duplicate wells set up for each concentration.
Seven days after compound addition (on Day 7), an Alamar Blue assay reagent (MCE, HY-111391 / CS-0040317) was added to measure the fluorescence intensity in each well. Wells containing the cells in the growth medium supplemented with 0.1% DMSO (Day 7) served as high-read control wells. The readouts from the wells containing the cells in the growth medium supplemented with 0.1% DMSO on the day of compound addition (Day 0) served as low-reading control well. GraphPad Prism software was used to calculate the concentration required to inhibit 50% of cell proliferation (GI50), which serves as a cell proliferation inhibition activity index.

[5] = fluorescence polarization, read-out: Menin-MLL IC50
[6] = Menin-MLL IC50, fluorescence polarization

Row | IC50 [1, 5] | IC50 ([3]; 168 h) | Compound | IC50 [2] | IC50 [4] | IC50 [1, 6] | IC50 ([1]; read-out: Menin-MLL IC50, fluorescence polarization) | IC50 ([3]; MOLM-13, 168 h)
1 | 3.5 nM | 26 nM | CCN(C(=O)c1cc(F)ccc1-c1cc(C2CCN(CCc3ccc(-c4cc(OC)c(OC)nn4)cc3)CC2)cn2cncc12)C(C)C [Compound 42, 2-[6-(1-{2-[4-(5,6-dimethoxypyridazin-3-yl)phenyl]ethyl}piperidin-4-yl)imidazo[1,5-a]pyridin-8-yl]-N-ethyl-5-fluoro-N-(isopropyl)benzamide] | 3.3 nM | 3300 nM |  |  | 
2 |  |  | CCN(C(=O)c1cc(F)ccc1-c1cc(C2CCN(C[C@H]3CC[C@H](NS(=O)(=O)CC)CC3)C2)cc2c1cnn2C)C(C)C (stereo partly shown) [Example 15, N-ethyl-5-fluoro-2-[1-methyl-6-(1-{[(1r,4r)-4-ethanesulfonamidocyclohexyl]methyl}pyrrolidin-3-yl)-1H-indazol-4-yl]-N-isopropylbenzamide] | 23 nM | 17000 nM | 11.5 nM |  | 
3 |  |  | CCN(C(=O)c1cc(F)ccc1-c1cc(C2=CCC(NCc3ccc4oc(=O)[nH]c4c3)CC2)cn2cncc12)C(C)C (stereo not shown) [Example 16, N-ethyl-5-fluoro-2-[6-(4-{[(2-oxo-2,3-dihydro-l,3-benzoxazol-5-yl)methyl]amino}cyclohexyl-1-ene-1-yl)imidazo[1,5-a]pyridin-8-yl]-N-isopropylbenzamide] | 14 nM | 20000 nM |  | 14.5 nM | 
4 | 9.5 nM |  | CCN(C(=O)c1cc(F)ccc1-c1cc(C2=CCC(NCc3ccc(-c4cc(OC)c(OC)nn4)cc3)CC2)cn2cncc12)C(C)C (stereo not shown) [Example 17] | 17 nM | 20000 nM |  |  | 
5 |  |  | CCN(C(=O)c1cc(F)ccc1-c1cc([C@H]2CC[C@@H](NCc3ccc(-c4cc(OC)c(OC)nn4)cc3)CC2)cn2cncc12)C(C)C [Example 18-1, N-ethyl-5-fluoro-N-(isopropyl)-2-{6-[(1s,4s)-4-({[4-(5,6-dimethoxypyridazin-3-yl)phenyl]methyl}amino)cyclohexyl]imidazo[1,5-a]pyridin-8-yl}benzamide] | 18 nM | 9700 nM | 6 nM |  | 61 nM
6 |  |  | CCN(C(=O)c1cc(F)ccc1-c1cc([C@H]2CC[C@H](NCc3ccc(-c4cc(OC)c(OC)nn4)cc3)CC2)cn2cncc12)C(C)C [Example 18-2, N-ethyl-5-fluoro-N-(isopropyl)-2-{6-[(1r,4r)-4-({[4-(5,6-dimethoxypyridazin-3-yl)phenyl]methyl}amino)cyclohexyl]imidazo[1,5-a]pyridin-8-yl}benzamide] | 9.4 nM | 6500 nM | 5.5 nM |  | 43 nM
7 | 43.5 nM |  | CCN(C(=O)c1cc(F)ccc1-c1cc(N2CCC(NCc3ccc(-c4cc(OC)c(OC)nn4)cc3)CC2)cn2cncc12)C(C)C [Example 19, 2-{6-[4-({[4-(5,6-dimethoxypyridazin-3-yl)phenyl]methyl}amino)piperidin-1-yl]imidazo[1,5-a]pyridin-8-yl}-N-ethyl-5-fluoro-N-isopropylbenzamide] | 49 nM | 20000 nM |  |  | 
8 | 45 nM |  | CCN(C(=O)c1cc(F)ccc1-c1cc(N2CCC(NCc3ccc(-c4cc(OC)c(OC)nn4)cc3F)CC2)cn2cncc12)C(C)C [Example 20] | 54 nM | 20000 nM |  |  | 
9 |  |  | CCN(C(=O)c1cc(F)ccc1-c1cc([C@H]2CCN(C[C@H]3CC[C@H](NS(=O)(=O)CC)CC3)C2)cn2cncc12)C(C)C [Example 22-1, N-ethyl-5-fluoro-N-isopropyl-2-{6-[(3R)-1-{[(1r,4r)-4-ethanesulfonamidocyclohexyl]methyl}pyrrolidin-3-yl]imidazo[1,5-a]pyridin-8-yl}benzamide] | 79 nM | 20000 nM | 23 nM |  | 
10 |  |  | CCN(C(=O)c1cc(F)ccc1-c1cc([C@@H]2CCN(C[C@H]3CC[C@H](NS(=O)(=O)CC)CC3)C2)cn2cncc12)C(C)C [Example 22-2] | 22 nM | 20000 nM | 14 nM |  | 
11 |  |  | CCN(C(=O)c1cc(F)ccc1-c1cc([C@@H]2CCN(C[C@H]3CC[C@H](NS(=O)(=O)CC)CC3)C2)cc2cncn12)C(C)C [Example 25-1, N-ethyl-5-fluoro-N-isopropyl-2-{7-[(3S)-1-{[(1r,4r)-4-ethanesulfonamidocyclohexyl]methyl}pyrrolidin-3-yl]imidazo[1,5-a]pyridin-5-yl}benzamide] | 4.7 nM | 12600 nM | 5.7 nM |  | 
12 |  |  | Cc1ncc2c(-c3ccc(F)cc3C(=O)N(C(C)C)C3CC3)cc(N3CCN(C(=O)C4NC5CCC4CC5)CC3)cn12 [Example 72, N-cyclopropyl-5-fluoro-2-(3-methyl-6-{4-[(1R,3S,4S)-2-azabicyclo[2.2.2]octan-3-carbonyl]piperazin-1-yl}imidazo[1,5-a]pyridin-8-yl)-N-(isopropyl)benzamide] | 57 nM | 20000 nM | 54 nM |  | 
13 |  |  | CCN(C(=O)c1cc(F)ccc1-c1cc(C2(F)CCN(C[C@H]3CC[C@H](NS(=O)(=O)CC)CC3)C2)cn2c(C)ncc12)C(C)C (stereo partly shown) [Example 73, N-ethyl-5-fluoro-2-[6-(3-fluoro-1-{[(1r,4r)-4-ethanesulfonamidocyclohexyl]methyl}pyrrolidin-3-yl)-3-methylimidazo[1,5-a]pyridin-8-yl]-N-(isopropyl) benzamide] | 61 nM | 20000 nM | 28 nM |  | 
14 |  |  | CCN(C(=O)c1cc(F)ccc1-c1cc(C2CN(C(=O)C3NC4CCC3CC4)C2)cn2c(C)ncc12)C(C)C [Example 90, N-ethyl-5-fluoro-2-(3-methyl-6-{1-[(1R,3S,4S)-2-azabicyclo[2.2.2]octan-3-carbonyl]azacyclobutan-3-yl}imidazo[1,5-a]pyridin-8-yl)-N-(isopropyl)benzamide] | 20 nM | 20000 nM | 11 nM |  | 99 nM
15 | 3.9 nM | 7.7 nM | CCN(C(=O)c1cc(F)ccc1-c1cc(C2CN([C@H](CN3CCN(C)CC3)C(C)C)C2)cn2c(C)ncc12)C(C)C [Example 403-1, N-ethyl-5-fluoro-2-(3-methyl-6-{1-[(2S)-3-methyl-1-(4-methylpiperazin-1-yl)butan-2-yl]azacyclobutan-3-yl}imidazo[1,5-a]pyridin-8-yl)-N-(isopropyl)benzamide] |  | 15000 nM |  |  | 
